Legend:
[1] = test system: immature male Wistar rats; assay: In vivo androgenicity, seminal vesicle wet weight after oral dosing for 5 days; parameters: species or system rat; conditions: for Increase seminal vesicle wet weight: once daily for 5 days, relative to vehicle treated rats; for Relative potency: DHT as reference (100%)
Protocol: Groups of 5 immature male Wistar rats, weighing 50±2 grams, received either vehicle treatment or were administered 30 or 10 mg/kg/day test substance by oral gavage in a dosing volume of 10 ml per kg for 5 consecutive days. During the experiment, animals were housed in cages of 45×23×15 cm and maintained in a controlled temperature of 22-24° C. and humidity (60-80%) environment with 12 hours light/dark cycles. Food (lab diet, rodent diet, PMI nutrition international) and water intake was ad libitum.
The animals were sacrificed 24 hours after receiving the final dose and the wet weight of the seminal vesicle of each animal was recorded and average wet weight per group was calculated. Increase in average seminal vesicle wet weight relative to the average seminal vesicle wet weight of vehicle treated rats was considered indicative for in vivo androgenicity.

[2] = target: T1, human sex Hormone Binding Globulin (SHBG) (Homo sapiens, UniProt P04278); assay: Competitive steroid-binding assay, displacement of [3H]DHT from human SHBG; conditions: [3H]DHT as labeled ligand, compared to DHT, T or DHEA (FIG. 1)
T1 sequence (P04278 30-402): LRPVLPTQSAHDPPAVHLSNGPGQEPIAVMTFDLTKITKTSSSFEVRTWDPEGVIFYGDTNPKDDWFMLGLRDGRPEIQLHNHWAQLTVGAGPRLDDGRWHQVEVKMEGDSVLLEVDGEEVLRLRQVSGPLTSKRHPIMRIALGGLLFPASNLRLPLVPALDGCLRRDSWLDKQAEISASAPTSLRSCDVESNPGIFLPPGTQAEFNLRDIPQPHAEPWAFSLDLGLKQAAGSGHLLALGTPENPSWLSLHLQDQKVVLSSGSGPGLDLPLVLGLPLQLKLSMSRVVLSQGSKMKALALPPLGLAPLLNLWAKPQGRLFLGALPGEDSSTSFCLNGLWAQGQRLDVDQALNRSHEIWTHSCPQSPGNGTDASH
Protocol: Human SHBG was treated for 30 min at room temperature with a dextran-coated charcoal (DCC) suspension in phosphate buffered saline (PBS) to remove any steroid ligand. After centrifugation (2,000×g for 10 min) to sediment the DCC, the supernatant containing the human SHBG was diluted in PBS to a concentration of 1 nM based on its steroid binding capacity.
Duplicate aliquots (100 μl) of this human SHBG solution were then incubated with an equal volume of [^3H]DHT at 10 nM, together with 100 μl of PBS alone or the same amount of PBS containing increasing concentrations of unlabeled steroid ligands as competitors in polystyrene test tubes. After incubation for 1 h at room temperature the reaction mixtures were placed in an ice bath for a further 15 min. […] The unbound ligands adsorbed to DCC were then removed by centrifugation (2,000×g for 15 min at 4° C.), and the amounts of [^3H]labeled DHT bound to SHBG were counted in 2 ml ACS scintillation cocktail using in liquid scintillation spectrophotometer. The average amounts of [^3H] labeled DHT bound to SHBG at each concentration of competitor (B) were expressed as a percentage of the average amounts of [^3H]labeled DHT bound to SHBG in the absence of competitor (T), and were plotted against the concentration of competitor in each assay tube.

[3] = target: T2, Recombinant rat AR (Rattus norvegicus, UniProt P15207); assay: Competitive steroid binding assay to the androgen receptor with [3H]mibolerone; conditions: for AR-binding Relative affinity: Ki value of DHT set at 100%; for Affinity to AR as compared to DHT and testosterone: orders of magnitude
T2 construct: made in house; host or cells: E. coli
T2 sequence (P15207 1-902): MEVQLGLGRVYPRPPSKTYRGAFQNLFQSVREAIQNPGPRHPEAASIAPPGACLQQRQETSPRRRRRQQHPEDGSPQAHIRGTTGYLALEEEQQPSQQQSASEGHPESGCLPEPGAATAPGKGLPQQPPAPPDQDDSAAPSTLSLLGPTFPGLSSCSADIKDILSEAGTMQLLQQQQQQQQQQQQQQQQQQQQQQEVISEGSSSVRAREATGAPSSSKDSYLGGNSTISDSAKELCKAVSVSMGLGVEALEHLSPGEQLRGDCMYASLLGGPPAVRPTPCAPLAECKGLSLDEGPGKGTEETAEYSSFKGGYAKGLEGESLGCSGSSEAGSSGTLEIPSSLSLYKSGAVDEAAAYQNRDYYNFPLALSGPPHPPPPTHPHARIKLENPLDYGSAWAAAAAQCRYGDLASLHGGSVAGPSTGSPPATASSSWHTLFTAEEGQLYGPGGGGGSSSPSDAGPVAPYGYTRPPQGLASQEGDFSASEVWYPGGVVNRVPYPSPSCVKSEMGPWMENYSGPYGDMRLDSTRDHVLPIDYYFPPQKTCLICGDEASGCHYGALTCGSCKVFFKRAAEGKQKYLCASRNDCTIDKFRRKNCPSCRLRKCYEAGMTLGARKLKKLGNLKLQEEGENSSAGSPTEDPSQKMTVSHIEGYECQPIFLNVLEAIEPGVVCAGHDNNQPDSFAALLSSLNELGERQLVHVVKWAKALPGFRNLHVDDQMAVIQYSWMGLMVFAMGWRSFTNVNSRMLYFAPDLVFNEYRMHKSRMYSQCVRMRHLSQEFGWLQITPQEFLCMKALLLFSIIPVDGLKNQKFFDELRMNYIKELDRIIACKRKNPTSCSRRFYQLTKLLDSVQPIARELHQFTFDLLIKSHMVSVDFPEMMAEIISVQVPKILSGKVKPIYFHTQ
Protocol: Recombinant rat AR was expressed and purified from E. Coli. […] After incubation for 4 h at 4° C., the unbound ligands were removed and the amounts of [^3H]mibolerone bound to the AR was measured. The average amounts of [^3H]mibolerone bound to AR at each concentration of competitor were used to make inhibition curves. IC50 values were subsequently determined by a non-linear, least squares regression analysis.

SMILES: C[C@]12CC[C@H]3[C@@H](CCC4=CC(=O)CC[C@@]43C)[C@@H]1CC[C@@H]2O [Testosterone, 17β-hydroxy-4-androsten-3-one, reference compound]
- Increase seminal vesicle wet weight ([1]; oral dose 10 mg/kg/day): 41%
- Increase seminal vesicle wet weight ([1]; oral dose 30 mg/kg/day): 47%

SMILES: C[C@]12CC[C@H]3[C@@H](CCC4=CC(=O)CC[C@@]43C)[C@@H]1[C@H](O)C[C@@H]2O [15β-hydroxytestosterone, 15β,17β-dihydroxy-4-androsten-3-one]
- Binding to human SHBG [2]: do not bind human SHBG
- Relative potency ([1]; oral dose 10 mg/kg/day): 400%
- Increase seminal vesicle wet weight ([1]; oral dose 10 mg/kg/day): 20%
- Relative potency ([1]; oral dose 30 mg/kg/day): 130%
- Increase seminal vesicle wet weight ([1]; oral dose 30 mg/kg/day): 35%
- Ki [3]: 557 nM
- AR-binding Relative affinity [3]: 0.18%
- Affinity to AR as compared to DHT and testosterone [3]: 2 to 3 orders of magnitude less affinity

SMILES: C[C@]12CC[C@H]3[C@@H](CCC4=CC(=O)CC[C@@]43C)[C@@H]1C[C@H](O)[C@@H]2O [16β-hydroxytestosterone, 16β,17β-dihydroxy-4-androsten-3-one]
- Ki [3]: 814 nM
- AR-binding Relative affinity [3]: 0.12%
- Affinity to AR as compared to DHT and testosterone [3]: 2 to 3 orders of magnitude less affinity

SMILES: C[C@]12CC[C@H]3[C@@H](CCC4=CC(=O)CC[C@@]43C)[C@@H]1[C@@H](O)C[C@@H]2O [15α-hydroxytestosterone, 15α,17β-dihydroxy-4-androsten-3-one]
- Binding to human SHBG [2]: do not bind human SHBG
- Relative potency ([1]; oral dose 10 mg/kg/day): 560%
- Increase seminal vesicle wet weight ([1]; oral dose 10 mg/kg/day): 28%
- Relative potency ([1]; oral dose 30 mg/kg/day): 148%
- Increase seminal vesicle wet weight ([1]; oral dose 30 mg/kg/day): 40%
- Ki [3]: 1820 nM
- AR-binding Relative affinity [3]: 0.05%
- Affinity to AR as compared to DHT and testosterone [3]: 2 to 3 orders of magnitude less affinity

SMILES: C[C@]12CCC(=O)C[C@@H]1CC[C@@H]1[C@@H]2CC[C@]2(C)[C@@H](O)CC[C@@H]12 [5α-dihydroxytestosterone, DHT, reference compound]
- Increase seminal vesicle wet weight ([1]; oral dose 10 mg/kg/day): 5%
- Increase seminal vesicle wet weight ([1]; oral dose 30 mg/kg/day): 27%
